Source: the NIST ThermoML archive (doi:10.1021/je300487n)
Numbers after ± are expanded uncertainties.

Key:
[1] = refractive index (Na D-line) (dimensionless); settings: 101.33 kPa, Liquid, Standard Abbe refractometry
[2] = for viscosity / mass density: 101.33 kPa, Liquid; for viscosity: Concentric cylinders viscometry; for mass density: Vibrating tube method; for surface tension liquid-gas: Drop volume

CC(=O)[O-].CCn1cc[n+](C)c1 [1-ethyl-3-methylimidazolium acetate]
[1]
Settings | refractive index
283.15 K | 1.50402 ± 0.00077
288.15 K | 1.50267 ± 0.00077
293.15 K | 1.50129 ± 0.00077
298.15 K | 1.49992 ± 0.00077
303.15 K | 1.49854 ± 0.00077
308.15 K | 1.49718 ± 0.00077
313.15 K | 1.49581 ± 0.00077
318.15 K | 1.49447 ± 0.00077
323.15 K | 1.49307 ± 0.00077
328.15 K | 1.49171 ± 0.00077
333.15 K | 1.49035 ± 0.00077
338.15 K | 1.48899 ± 0.00077
343.15 K | 1.48756 ± 0.00078
348.15 K | 1.48613 ± 0.00077
353.15 K | 1.48476 ± 0.00077

CC(=O)O.CCN(C)C [N,N-dimethylethanamine acetate]
Settings | mass density, [2] [kg/m3] | refractive index, [1] | surface tension liquid-gas, [2] [mN/m] | viscosity, [2] [mPa·s]
283.15 K | 1028 ± 0.3 | 1.42303 ± 0.00055 | – | 26.22
288.15 K | 1024 ± 0.3 | 1.42143 ± 0.00055 | – | 20.89
293.15 K | 1020.1 ± 0.3 | 1.41983 ± 0.00055 | – | 16.36
298.15 K | 1016.1 ± 0.3 | 1.41819 ± 0.00055 | – | 13.97
298.2 K | – | – | 33.5 ± 0.3 | –
303.15 K | 1012.2 ± 0.3 | 1.41655 ± 0.00055 | – | 11.68
308.1 K | – | – | 32.7 ± 0.3 | –
308.15 K | 1008.3 ± 0.3 | 1.41492 ± 0.00055 | – | 9.888
313.15 K | 1004.4 ± 0.3 | 1.41328 ± 0.00056 | – | 8.275
318 K | – | – | 32.1 ± 0.3 | –
318.15 K | 1000.5 ± 0.3 | 1.41156 ± 0.00056 | – | 7.316
323.15 K | 996.8 ± 0.3 | 1.40991 ± 0.00056 | – | 6.381
328.15 K | 992.9 ± 0.3 | 1.4082 ± 0.00056 | – | 5.611
328.4 K | – | – | 31.3 ± 0.3 | –
333.15 K | 989 ± 0.3 | 1.40649 ± 0.00056 | – | 4.869
338.15 K | 985 ± 0.3 | 1.40476 ± 0.00056 | – | 4.427
338.2 K | – | – | 30.5 ± 0.3 | –
343.15 K | 981.1 ± 0.3 | 1.40312 ± 0.00056 | – | 3.97
348.15 K | 977.2 ± 0.3 | 1.40138 ± 0.00057 | – | 3.578
353.15 K | 973.1 ± 0.3 | 1.39963 ± 0.00057 | – | 3.132
358.15 K | 969.1 ± 0.3 | – | – | 2.943
363.15 K | 965.1 ± 0.3 | – | – | 2.691

CC(=O)[O-].CCCC[N+]1(C)CCCC1 [1-butyl-1-methylpyrrolidinium acetate]
Settings | mass density, [2] [kg/m3] | refractive index, [1] | surface tension liquid-gas, [2] [mN/m] | viscosity, [2] [mPa·s]
283.15 K | – | 1.47263 ± 0.00076 | – | –
288.15 K | – | 1.47144 ± 0.00075 | – | –
293.15 K | – | 1.47075 ± 0.00074 | – | –
298.15 K | 1021.2 ± 2.5 | 1.46998 ± 0.00075 | – | 106.63
298.3 K | – | – | 37.4 ± 0.6 | –
303.15 K | 1018.1 ± 2.5 | 1.46868 ± 0.00077 | – | 79.92
307.9 K | – | – | 36.8 ± 0.6 | –
308.15 K | 1015.1 ± 2.5 | 1.46736 ± 0.00077 | – | 61.34
313.15 K | 1012.1 ± 2.5 | 1.46603 ± 0.00077 | – | 48.45
318 K | – | – | 36.4 ± 0.6 | –
318.15 K | 1009.2 ± 2.5 | 1.46461 ± 0.00077 | – | 38.34
323.15 K | 1006.2 ± 2.5 | 1.4632 ± 0.00077 | – | 31.1
328.15 K | 1003.3 ± 2.4 | 1.46178 ± 0.00077 | – | 25.61
328.4 K | – | – | 36.1 ± 0.6 | –
333.15 K | 1000.4 ± 2.4 | 1.46042 ± 0.00077 | – | 21.64
338.15 K | 997.8 ± 2.4 | 1.459 ± 0.00078 | – | 18.05
338.5 K | – | – | 35.6 ± 0.6 | –
343.15 K | 994.9 ± 2.4 | 1.45755 ± 0.00077 | – | 15.42
343.6 K | – | – | 34.4 ± 0.6 | –
348.15 K | 992 ± 2.4 | 1.45619 ± 0.00077 | – | 13.3
353.15 K | 989.2 ± 2.4 | 1.45479 ± 0.00077 | – | 11.84
358.15 K | 986.3 ± 2.4 | – | – | 10.16
363.15 K | 983.5 ± 2.4 | – | – | 8.983

CC(=O)[O-].CCn1cc[nH+]c1 [1-ethyl-1H-imidazolium acetate]
Settings | mass density, [2] [kg/m3] | refractive index, [1] | surface tension liquid-gas, [2] [mN/m] | viscosity, [2] [mPa·s]
283.15 K | 1047.2 ± 2.7 | 1.46347 ± 0.00081 | – | 7.88
288.15 K | 1042.9 ± 2.7 | 1.4616 ± 0.00082 | – | 6.669
293.15 K | 1038.5 ± 2.6 | 1.45966 ± 0.00082 | – | 5.291
298.1 K | – | – | 37.8 ± 0.6 | –
298.15 K | 1034.2 ± 2.6 | 1.45769 ± 0.00082 | – | 4.955
303.15 K | 1029.9 ± 2.6 | 1.45576 ± 0.00082 | – | 4.337
307.8 K | – | – | 36.7 ± 0.6 | –
308.15 K | 1025.6 ± 2.6 | 1.45379 ± 0.00082 | – | 3.828
313.15 K | 1021.3 ± 2.5 | 1.45185 ± 0.00082 | – | 3.225
318.15 K | 1017 ± 2.5 | 1.44985 ± 0.00082 | – | 3.051
318.5 K | – | – | 36.1 ± 0.6 | –
323.15 K | 1012.7 ± 2.5 | 1.44791 ± 0.00082 | – | 2.75
328.15 K | 1008.4 ± 2.5 | 1.44593 ± 0.00082 | – | 2.492
328.3 K | – | – | 35 ± 0.6 | –
333.15 K | 1004.1 ± 2.5 | 1.44395 ± 0.00082 | – | 2.171
338.15 K | 999.8 ± 2.4 | 1.44197 ± 0.00082 | – | 2.078
339.9 K | – | – | 33.7 ± 0.6 | –
343.15 K | 995.8 ± 2.4 | 1.44 ± 0.00082 | – | 1.91
344.2 K | – | – | 33.3 ± 0.5 | –
348.15 K | 991.5 ± 2.4 | 1.438 ± 0.00082 | – | 1.762
353.15 K | 987.2 ± 2.4 | 1.43607 ± 0.00082 | – | 1.547
358.15 K | 982.8 ± 2.4 | – | – | 1.515
363.15 K | 978.5 ± 2.3 | – | – | 1.412

CC(=O)[O-].CCCCn1cc[n+](C)c1 [1-butyl-3-methylimidazolium acetate]
Settings | mass density, [2] [kg/m3] | refractive index, [1] | surface tension liquid-gas, [2] [mN/m] | viscosity, [2] [mPa·s]
283.15 K | 1062.2 ± 0.4 | 1.49269 ± 0.0005 | – | 1037.2
288.15 K | 1058.9 ± 0.4 | 1.49158 ± 0.00051 | – | 658.84
293.15 K | 1055.5 ± 0.4 | 1.49021 ± 0.00052 | – | 429.11
298 K | – | – | 36.4 ± 0.3 | –
298.15 K | 1052.3 ± 0.4 | 1.4889 ± 0.00054 | – | 297.39
303.15 K | 1049.2 ± 0.4 | 1.48725 ± 0.00054 | – | 209.65
307.8 K | – | – | 35.9 ± 0.3 | –
308.15 K | 1046.1 ± 0.3 | 1.4858 ± 0.00053 | – | 152.07
313.15 K | 1043 ± 0.3 | 1.48438 ± 0.00053 | – | 112.23
318 K | – | – | 35.5 ± 0.3 | –
318.15 K | 1040 ± 0.3 | 1.48297 ± 0.00059 | – | 86.07
323.15 K | 1037 ± 0.3 | 1.4806 ± 0.00059 | – | 66.82
328.15 K | 1034 ± 0.3 | 1.47915 ± 0.00053 | – | 52.84
328.6 K | – | – | 35.1 ± 0.3 | –
333.15 K | 1031 ± 0.3 | 1.4777 ± 0.00053 | – | 42.67
338.15 K | 1028 ± 0.3 | 1.47624 ± 0.00054 | – | 34.66
339 K | – | – | 34.7 ± 0.3 | –
343.15 K | 1025 ± 0.3 | 1.47463 ± 0.00054 | – | 28.69
348.15 K | 1022.1 ± 0.3 | 1.47318 ± 0.00053 | – | 24.04
353.15 K | 1019.1 ± 0.3 | 1.4718 ± 0.00053 | – | 20.76
358.15 K | 1016.2 ± 0.3 | – | – | 17.45
363.15 K | 1013.3 ± 0.3 | – | – | 15.08
